Molecules are shown by their SMILES.

Assay [1] has as its target T1, human MCHR1 (Homo sapiens, UniProt Q99705).
T1 construct: expressed in transfected cells; host or cells: CHO cell clone 57 (described in WO01/82925); membrane fraction
The experiment in a line: Human MCH receptor 1 (MCHR1) binding inhibitory activity, binding assay with [125I]-MCH(4-19). The following applies: test compound 0.1 μM, human MCHR1-expressing CHO cell membrane fraction, read-out: Binding inhibition rate % (0.1 μM). How it is done: Determination of Human MCH Receptor 1 (MCHR1) Binding Inhibitory Activity of Test Compound Using Binding Assay
1. Preparation of Membrane Fraction
Using human MCHR1(=SLC-1 receptor)-expressing CHO cell clone 57 described in WO01/82925, MCHR1-expressing CHO cellular membrane fractions were prepared by the following method.
In phosphate buffered saline (pH 7.4) supplemented with 5 mM EDTA (ethylenediaminetetraacetic acid) were respectively suspended human MCHR1-expressing CHO cells (1×10^8 cells) and centrifuged. Homogenate buffer (10 mL, 10 mM NaHCO3, 5 mM EDTA, pH 7.5, 0.5 mM PMSF (phenylmethylsulfonyl fluoride), 20 mg/L leupeptin, 4 mg/L E-64, 1 mg/L pepstatin A) was added to the pellets of the cells and, using Polytron Homogenizer, the mixture was homogenated. The supernatant obtained after centrifugation at 400×g for 10 min was further centrifuged at 100,000×g for 1 hr to give precipitate of the membrane fraction. The precipitate were suspended in 2 mL of assay buffer [20 mM Tris-HCl (pH 7.5), 5 mM EDTA, 0.5 mM PMSF, 20 mg/L leupeptin, 4 mg/L E-64, 1 mg/L pepstatin A]. The membrane fractions were suspended in assay buffer to a protein concentration of 2 mg/mL, and after dispensing, preserved at −80° C. and used upon thawing each time when in use.
The MCHR1 ligand binding inhibitory activity of the test compound was determined as follows.
An MCHR1-expressing CHO cellular membrane fraction (173 μL) diluted with an assay buffer was dispensed to a 96 well polypropylene plate (3363, Corning). DMSO solution (2 μL), 33 μM cold MCH(1-19) diluted with DMSO solution (2 μL), or a test compound solution diluted with DMSO solution to various concentrations (2 μL) was added, and lastly, [^125I]-MCH(4-19) diluted with assay buffer (hereinafter, sometimes to be referred to as “hot MCH”, 25 μL) was added to each well. The mixture was reacted with stirring at room temperature for 1 hr, and the plate was set on FilterMate Harvester (PerkinElmer). Using a treating glass filter plate (GF/C, PerkinElmer) with polyethyleneimine, which had been previously set, the plate was suction-filtered and washed three times with washing buffer (50 mM Tris-HCl buffer pH 7.5). The glass filter plate was dried, MicroScinti0 (PerkinElmer) was added at 25 μL/well, and the resulting radioactivity was measured by TopCount liquid scintillation counter (PerkinElmer). The binding inhibition rate of the test compound was calculated by the following formula. Binding inhibition (%)=100−(radioactivity upon addition of test compound and hot MCH−radioactivity upon addition of cold MCH and hot MCH solution)/(radioactivity upon addition of DMSO solution and hot MCH−radioactivity upon addition of cold MCH and hot MCH solution)×100
The binding inhibition rates (%) of test compounds (0.1 μM) as measured using human MCHR1-expressing CHO cell are shown in Table 2.

The target of assay [2] is T1, human MCHR1. The experiment in a line: MCH receptor 1 antagonistic activity, Ca2+ mobilization assay. To be noted: test compound 0.1 μM; human MCHR1-expressing CHO cells (clone #4); MCH(4-19) 2 nM; read-out: Inhibition rate % (0.1 μM). It is filed as cell-based. Here is the method: Measurement of MCH Receptor 1 Antagonistic Activity of Test Compound Using Ca^2+ Mobilization Assay
Using an expression vector plasmid introduced with human MCHR1 gene for expression in animal cells, human MCHR1 gene was introduced into CHO cells (CHO dhfr^−) by Lipofectamine LTX (Invitrogen). The cells were cultured in selection MEMα medium [445 mL of MEMα medium without nucleic acid and added with 5 mL of Penicillin-Streptomycin (Invitrogen) and 50 mL of dialyzed fetal bovine serum]. Colony 24 clones grown in the selection medium, which were human MCHR1 gene-expressing CHO cell candidates, were selected. […] In the following test, this human MCHR1-expressing CHO cell (clone #4) was used. An integrated dispensing function fluorometer (CellLux, PerkinElmer) was used for Ca^2+ mobilization assay. The CHO cells were sown in a 96 well plate (type 3904, Corning) with a black wall and clear well bottom at a density of 20000 cells/well, and cultured in an incubator for about 24 hr at 5% CO2, 37° C. The medium was removed, and the cells were washed with phosphate buffered saline (PBS). A Ca^2+ indicator dye reagent (DOJINDO LABORATORIES, Ca screening no-wash kit Fluo4) was added at 100 μL/well, and the dye was allowed to penetrate into the cell for 30 min in an incubator at 5% CO2, 37° C. The plate was set on a plate reader. First, a test compound solution diluted with an assay buffer [10 mM HEPES (pH 7.4), 1× assay buffer containing 0.1% BSA (DOJINDO LABORATORIES, attached to Ca screening no-wash kit Fluo4)] or DMSO solution was added at 50 μL/well, and then ligand MCH (4-19) peptide (final concentration 2 nM) diluted with assay buffer or DMSO was added at 50 μL/well, during which changes in intracellular fluorescence were measured at 2 second intervals. The antagonistic activity of the test compound was calculated by the following formula and shown as an inhibition rate (%) wherein the intracellular fluorescence activity resulting from the stimulation by the addition of ligand MCH (4-19) peptide was 100% and that of the well added with DMSO solution alone was 0%. inhibitory rate (%)=100−[fluorescence activity upon addition of test compound and MCH(4-19) peptide solution−fluorescence activity upon addition of DMSO solution only]/[fluorescence activity upon addition of DMSO solution and MCH(4-19) peptide solution−fluorescence activity upon addition of DMSO solution only]×100
The inhibition rates (%) of test compounds (0.1 μM) as antagonist activity measured using human MCHR1-expressing CHO cells (clone #4) are shown in the following Table 3.

T1 sequence (Q99705 whole entry): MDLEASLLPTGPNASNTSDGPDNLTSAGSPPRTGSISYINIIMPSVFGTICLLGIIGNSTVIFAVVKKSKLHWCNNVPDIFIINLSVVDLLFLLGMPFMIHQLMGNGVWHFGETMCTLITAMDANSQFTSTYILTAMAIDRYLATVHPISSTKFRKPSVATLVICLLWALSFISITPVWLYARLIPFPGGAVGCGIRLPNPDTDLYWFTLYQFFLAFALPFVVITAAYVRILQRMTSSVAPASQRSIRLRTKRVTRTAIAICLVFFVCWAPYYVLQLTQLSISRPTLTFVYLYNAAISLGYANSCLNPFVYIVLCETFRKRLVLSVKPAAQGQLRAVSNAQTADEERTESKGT

Regarding `COc1ccc(-n2ccc3oc(-c4ccc(Cl)cc4)cc3c2=O)cc1OC` [Example 2, 2-(4-Chlorophenyl)-5-(3,4-dimethoxyphenyl)furo[3,2-c]pyridin-4(5H)-one], the inhibition at 0.1 µM at human MCHR1 [1] came to 81%; at human MCHR1 [2], 94%.

Consider `COc1cc(-n2ccc3oc(-c4ccc(Cl)cc4)cc3c2=O)ccc1OCC1(C#N)CC1` [Example 5, 1-((4-(2-(4-Chlorophenyl)-4-oxofuro[3,2-c]pyridin-5(4H)-yl)-2-methoxyphenoxy)methyl)cyclopropanecarbonitrile], for which the inhibition at 0.1 µM was 97% on human MCHR1 [1] and 100% on human MCHR1 [2].

Regarding `COc1cc(-n2cnc3oc(-c4ccc(Cl)cc4)cc3c2=O)ccc1OCC1(C#N)CC1` [Example 6, 1-((4-(6-(4-Chlorophenyl)-4-oxofuro[2,3-d]pyrimidin-3(4H)-yl)-2-methoxyphenoxy)methyl)cyclopropanecarbonitrile], the inhibition at 0.1 µM on human MCHR1 [1] was 82%; on human MCHR1 [2], 37%.

On to `COc1cc(-n2ccc3oc(-c4ccc(Cl)cc4)cc3c2=O)ccc1OCC(C)(C)O` [Example 7, 2-(4-Chlorophenyl)-5-(4-(2-hydroxy-2-methylpropoxy)-3-methoxyphenyl)furo[3,2-c]pyridin-4(5H)-one], for which the inhibition at 0.1 µM at human MCHR1 [1] stood at 97%; on human MCHR1 [2], 106%.

For `N#CC1(COc2ccc(-n3ccc4oc(-c5ccc(Cl)cc5)cc4c3=O)cc2Cl)CC1` [Example 8, 1-((2-Chloro-4-(2-(4-chlorophenyl)-4-oxofuro[3,2-c]pyridin-5(4H)-yl)phenoxy)methyl)cyclopropanecarbonitrile], the inhibition at 0.1 µM at human MCHR1 [1] worked out at 76%.

In the case of `COc1cc(-n2ccc3oc(-c4ccc(F)cc4)cc3c2=O)ccc1OCC1(C#N)CC1` [Example 10, 1-((4-(2-(4-Fluorophenyl)-4-oxofuro[3,2-c]pyridin-5(4H)-yl)-2-methoxyphenoxy)methyl)cyclopropanecarbonitrile], the values for the inhibition at 0.1 µM at human MCHR1 [1] and on human MCHR1 [2] were 83% and 86%, respectively.

Regarding `COc1cc(-n2ccc3oc(-c4ccc(Cl)s4)cc3c2=O)ccc1OCC1(C#N)CC1` [Example 12, 1-((4-(2-(5-Chloro-2-thienyl)-4-oxofuro[3,2-c]pyridin-5(4H)-yl)-2-methoxyphenoxy)methyl)cyclopropanecarbonitrile], the inhibition at 0.1 µM at human MCHR1 [1] stood at 53%; at human MCHR1 [2], 64%.

`COc1cc(-n2ccc3oc(-c4ccccc4F)cc3c2=O)ccc1OCC1(C#N)CC1` [Example 15, 1-((4-(2-(2-Fluorophenyl)-4-oxofuro[3,2-c]pyridin-5(4H)-yl)-2-methoxyphenoxy)methyl)cyclopropanecarbonitrile]: the inhibition at 0.1 µM at human MCHR1 [1] was found to be 17%.

Regarding `COc1ccc(-c2cc3c(=O)n(-c4ccc(OCC5(C#N)CC5)c(OC)c4)ccc3o2)cc1` [Example 16, 1-((2-Methoxy-4-(2-(4-methoxyphenyl)-4-oxofuro[3,2-c]pyridin-5(4H)-yl)phenoxy)methyl)cyclopropanecarbonitrile], the inhibition at 0.1 µM on human MCHR1 [1] stood at 79%; on human MCHR1 [2], 97%.

For `COc1cc(-n2ccc3oc(-c4ccccc4)cc3c2=O)ccc1OCC1(C#N)CC1` [Example 20, 1-((2-Methoxy-4-(4-oxo-2-phenylfuro[3,2-c]pyridin-5(4H)-yl)phenoxy)methyl)cyclopropanecarbonitrile], the inhibition at 0.1 µM on human MCHR1 [1] came out at 58%.

With `COc1cc(-n2ccc3oc(-c4ccc(F)cn4)cc3c2=O)ccc1OCC1(C#N)CC1` [Example 21, 1-((4-(2-(5-Fluoropyridin-2-yl)-4-oxofuro[3,2-c]pyridin-5(4H)-yl)-2-methoxyphenoxy)methyl)cyclopropanecarbonitrile], the inhibition at 0.1 µM on human MCHR1 [1] turned out to be 42%.

As to `COC(=O)c1ccc(-n2ccc3oc(-c4ccc(Cl)cc4)cc3c2=O)cc1OC` [Example 24, Methyl 4-(2-(4-chlorophenyl)-4-oxofuro[3,2-c]pyridin-5(4H)-yl)-2-methoxybenzoate], on human MCHR1 [1], the inhibition at 0.1 µM worked out at 47%.

On to `COc1cc(-n2ccc3oc(-c4ccc(C(F)(F)F)cc4)cc3c2=O)ccc1OCC1(C#N)CC1` [Example 27, 1-((2-Methoxy-4-(4-oxo-2-(4-(trifluoromethyl)phenyl)furo[3,2-c]pyridin-5(4H)-yl)phenoxy)methyl)cyclopropanecarbonitrile], for which the inhibition at 0.1 µM on human MCHR1 [1] stood at 60%.

For the molecule `COc1cc(-n2ccc3oc(-c4ccc(Cl)cc4)cc3c2=O)ccc1O` [Example 30, 2-(4-Chlorophenyl)-5-(4-hydroxy-3-methoxyphenyl)furo[3,2-c]pyridin-4(5H)-one], the inhibition at 0.1 µM on human MCHR1 [1] was determined as 66%.

With `COc1cc(-n2ccc3oc(-c4ccc(Cl)cc4)cc3c2=O)ccc1C(=O)NCC1CC1` [Example 45, 4-(2-(4-Chlorophenyl)-4-oxofuro[3,2-c]pyridin-5(4H)-yl)-N-(cyclopropylmethyl)-2-methoxybenzamide], on human MCHR1 [1], the inhibition at 0.1 µM was determined as 74%.

`CCc1cc(-n2ccc3oc(-c4ccc(Cl)cc4)cc3c2=O)ccc1OCC1(C#N)CC1` [Example 47, 1-((4-(2-(4-Chlorophenyl)-4-oxofuro[3,2-c]pyridin-5(4H)-yl)-2-ethylphenoxy)methyl)cyclopropanecarbonitrile]: the inhibition at 0.1 µM at human MCHR1 [1] turned out to be 74%.

As for `CCC1(COc2ccc(-n3ccc4oc(-c5ccc(Cl)cc5)cc4c3=O)cc2OC)COC1` [Example 48, 2-(4-Chlorophenyl)-5-(4-((3-ethyloxetan-3-yl)methoxy)-3-methoxyphenyl)furo[3,2-c]pyridin-4(5H)-one], the inhibition at 0.1 µM on human MCHR1 [1] was 71%.

In the case of `COc1cc(-n2ccc3oc(-c4ccc(Cl)cc4)cc3c2=O)ccc1OCC(N)=O` [Example 50, 2-(4-(2-(4-Chlorophenyl)-4-oxofuro[3,2-c]pyridin-5(4H)-yl)-2-methoxyphenoxy)acetamide], at human MCHR1 [1], the inhibition at 0.1 µM amounted to 85%.

Consider `COc1cc(-n2ccc3oc(-c4ccc(Cl)cc4)cc3c2=O)ccc1OCCCC(N)=O` [Example 51, 4-(4-(2-(4-Chlorophenyl)-4-oxofuro[3,2-c]pyridin-5(4H)-yl)-2-methoxyphenoxy)butanamide], for which the inhibition at 0.1 µM at human MCHR1 [1] is 90%.

For orientation: inhibition means the drop in the measured response relative to a control, in per cent.
